# Test system: iPSC-derived cortical neurons
# Type: cell-based
# [1] = responders vs non-responders after 10 μM Bupropion, NS
smiles,measurement,setting,value
"CC(NC(C)(C)C)C(=O)c1cccc(Cl)c1 (stereo not drawn) [Bupropion, 3-Chloro-N-tert-butyl-β-keto-α-methylphenethylamin]",number of genes significantly downregulated in responders as compared to non-responders,"10 μm Bupropion, p<0.01, Table 4",174 genes
same,number of genes significantly upregulated in responders as compared to non-responders after treatment,"10 μm Bupropion, p<0.01, over 60,000 genes probed",69 genes
same,logFC ABLIM2,[1],−1.305
same,logFC ABLIM3,[1],−2.05
same,logFC ACTL6B,[1],−1.577
same,logFC ADCY1,[1],−1.308
same,logFC ADCY5,[1],−1.299
same,logFC ADCYAP1R1,[1],−1.154
same,logFC ADD2,[1],−0.7958
same,logFC ADGRB3,[1],−1.496
same,logFC ADRA1B,[1],−2.202
same,logFC AGAP2,[1],−1.343
same,logFC AK5,[1],−1.456
same,logFC AKAP6,[1],−1.215
same,logFC AKR1C2,[1],−1.478
same,logFC ALPK3,[1],−1.224
same,logFC AMER3,[1],−1.722
same,logFC ANK1,[1],−1.875
same,logFC ANK2,[1],−0.959
same,logFC ANK3,[1],−1.262
same,logFC ANKH,[1],−0.9269
same,logFC ANKRD30BL,[1],−2.897
same,logFC ANKRD53,[1],−1.517
same,logFC ANKRD55,[1],−1.879
same,logFC AP3B2,[1],−1.482
same,logFC APBB1,[1],−0.8199
same,logFC APC,[1],−0.916
same,logFC APLP1,[1],−1.076
same,logFC ARHGAP20,[1],−2.01
same,logFC ARHGAP26,[1],−0.7629
same,logFC ARHGAP33,[1],−0.9502
same,logFC ARHGAP36,[1],−2.569
same,logFC ARPP21,[1],−3.247
same,logFC ASB8,[1],−0.7127
same,logFC ASIC4,[1],−1.72
same,logFC ATAT1,[1],−0.8189
same,logFC ATCAY,[1],−1.047
same,logFC ATP1A3,[1],−1.336
same,logFC ATP2B3,[1],−1.771
same,logFC ATP6V0A1,[1],−0.6012
same,logFC ATP6V0E2,[1],−1.011
same,logFC B3GALNT1,[1],−2.052
same,logFC B3GALT2,[1],−1.685
same,logFC BASP1,[1],−0.8607
same,logFC BINI,[1],−0.8522
same,logFC BMERB1,[1],−0.8373
same,logFC BRINP1,[1],−1.623
same,logFC BRSK1,[1],−0.753
same,logFC BSN,[1],−1.599
same,logFC C1orf216,[1],−1.465
same,logFC C4orf50,[1],−1.94
same,logFC CA10,[1],−2.576
same,logFC CACNA1B,[1],−1.253
same,logFC CACNB1,[1],−1.261
same,logFC CACNB3,[1],−0.6878
same,logFC CACNG2,[1],−1.666
same,logFC CACNG3,[1],−1.337
same,logFC CADM3,[1],−1.659
same,logFC CADM4,[1],−0.6745
same,logFC CALB2,[1],−1.647
same,logFC CAMK1D,[1],−0.9513
same,logFC CAMK2B,[1],−1.689
same,logFC CAMSAP3,[1],−0.8932
same,logFC CASKIN1,[1],−0.9781
same,logFC CCDC141,[1],−2.886
same,logFC CCDC184,[1],−1.385
same,logFC CDH7,[1],−1.611
same,logFC CDH12,[1],−2.03
same,logFC CDK5R1,[1],−1.375
same,logFC CELF3,[1],−1.26
same,logFC CELF4,[1],−1.812
same,logFC CEP170B,[1],−0.6703
same,logFC CEP295NL,[1],−1.321
same,logFC CHGA,[1],−1.543
same,logFC CHGB,[1],−1.246
same,logFC CHRFAM7A,[1],−1.645
same,logFC CHRM2,[1],−2.12
same,logFC CHRNA1,[1],−2.49
same,logFC CHRNA4,[1],−1.718
same,logFC CHRNB2,[1],−1.815
same,logFC CHST1,[1],−1.711
same,logFC CLASP2,[1],−0.7536
same,logFC CLCN4,[1],−0.8168
same,logFC CLDN5,[1],−1.453
same,logFC CLIP2,[1],−0.856
same,logFC CLSTN3,[1],−0.8161
same,logFC CMIP,[1],−0.6391
same,logFC CNTN1,[1],−1.722
same,logFC CORO2B,[1],−1.199
same,logFC CPLX1,[1],−1.467
same,logFC CPLX2,[1],−1.647
same,logFC CRB1,[1],−1.691
same,logFC CREG2,[1],−1.282
same,logFC CRMP1,[1],−1.121
same,logFC CSMD1,[1],−1.31
same,logFC CTNND2,[1],−1.034
same,logFC CXCL11,[1],−2.544
same,logFC CYGB,[1],−1.896
same,logFC DAAM1,[1],−0.6945
same,logFC DBNDD1,[1],−0.8117
same,logFC DCLK2,[1],−1.477
same,logFC DES,[1],−2.44
same,logFC DIRAS1,[1],−1.66
same,logFC DIRAS2,[1],−1.952
same,logFC DISP2,[1],−1.757
same,logFC DKK3,[1],−1.052
same,logFC DMTN,[1],−1.522
same,logFC DOK5,[1],−1.085
same,logFC DPF1,[1],−1.34
same,logFC DPP10,[1],−1.13
same,logFC DPYSL4,[1],−1.082
same,logFC DRD2,[1],−1.595
same,logFC DSCAML1,[1],−1.404
same,logFC DTX1,[1],−1.204
same,logFC EBF1,[1],−1.335
same,logFC ELAVL4,[1],−1.326
same,logFC ELFN2,[1],−1.113
same,logFC EPB41L1,[1],−0.9134
same,logFC EPHA8,[1],−1.345
same,logFC ERAP2,[1],−2.32
same,logFC ETFB,[1],−1.045
same,logFC EVI5L,[1],−0.9714
same,logFC EYA1,[1],−0.8128
same,logFC F7,[1],−1.608
same,logFC FAIM2,[1],−1.923
same,logFC FAM131B,[1],−0.8962
same,logFC FAM219A,[1],−0.8506
same,logFC FAM222A,[1],−1.164
same,logFC FAR2,[1],−1.384
same,logFC FAXC,[1],−0.9556
same,logFC FBXO41,[1],−0.97
same,logFC FGF14,[1],−1.149
same,logFC FMN2,[1],−1.148
same,logFC FRMD5,[1],−0.7871
same,logFC FRMPD4,[1],−2.13
same,logFC FSTL4,[1],−1.8
same,logFC FSTL5,[1],−1.624
same,logFC GABBR2,[1],−2.251
same,logFC GABRG3,[1],−1.687
same,logFC GABRR1,[1],−2.904
same,logFC GAD2,[1],−1.46
same,logFC GALNT9,[1],−1.69
same,logFC GALNTL6,[1],−1.861
same,logFC GAP43,[1],−1.304
same,logFC GCK,[1],−1.587
same,logFC GDPD5,[1],−1.245
same,logFC GFOD1,[1],−1.12
same,logFC GLRA1,[1],−2.174
same,logFC GLRA2,[1],−1.929
same,logFC GLRA3,[1],−3.119
same,logFC GMIP,[1],−0.765
same,logFC GNAO1,[1],−1.181
same,logFC GOLGA7B,[1],−1.854
same,logFC GPR26,[1],−2.221
same,logFC GPR139,[1],−1.695
same,logFC GPR158,[1],−1.27
same,logFC GPRIN1,[1],−1.521
same,logFC GPSM1,[1],−0.733
same,logFC GRIA4,[1],−1.263
same,logFC GRIK2,[1],−1.1
same,logFC GRIN1,[1],−1.919
same,logFC HECW1,[1],−1.709
same,logFC HERC1,[1],−0.5953
same,logFC HID1,[1],−0.975
same,logFC HK1,[1],−0.5528
same,logFC HRH3,[1],−1.315
same,logFC HTR5A,[1],−2.98
same,logFC IFI27,[1],−1.463
same,logFC IFIT5,[1],−0.8218
same,logFC IGLON5,[1],−0.9869
same,logFC IGSF8,[1],−0.6614
same,logFC INA,[1],−1.425
same,logFC INSM1,[1],−1.183
same,logFC ISL1,[1],−2.075
same,logFC ISLR2,[1],−2.565
same,logFC JAKMIP1,[1],−1.737
same,logFC KBTBD11,[1],−1.03
same,logFC KCNA2,[1],−1.235
same,logFC KCNC2,[1],−2.213
same,logFC KCNH6,[1],−1.966
same,logFC KCNIP1,[1],−1.502
same,logFC KCNJ3,[1],−1.979
same,logFC KCNJ6,[1],−1.811
same,logFC KCNJ9,[1],−1.383
same,logFC KCNK3,[1],−2.03
same,logFC KCNQ2,[1],−1.053
same,logFC KCNS2,[1],−2.976
same,logFC KIAA0513,[1],−1.005
same,logFC KIAA1755,[1],−1.809
same,logFC KIF3C,[1],−1.295
same,logFC KIF5A,[1],−1.285
same,logFC KIFAP3,[1],−0.9071
same,logFC KIRREL3,[1],−1.338
same,logFC KLHL1,[1],−2.102
same,logFC LG14,[1],−0.9845
same,logFC LGI2,[1],−1.253
same,logFC LGI3,[1],−2.434
same,logFC LHFPL4,[1],−1.28
same,logFC LMTK3,[1],−0.9148
same,logFC LRATD1,[1],−1.429
same,logFC LRFN2,[1],−1.645
same,logFC LRRC4C,[1],−1.523
same,logFC LRRC7,[1],−1.643
same,logFC LRRC55,[1],−1.342
same,logFC LRRTM2,[1],−1.587
same,logFC LSM11,[1],−0.7282
same,logFC LZTS1,[1],−1.332
same,logFC MAP1A,[1],−1.103
same,logFC MAPK8IP2,[1],−1.461
same,logFC MAPRE2,[1],−0.7432
same,logFC MAST1,[1],−1.276
same,logFC MFNG,[1],−1.262
same,logFC MFSD6,[1],−1.112
same,logFC MKRN3,[1],−1.448
same,logFC MPO,[1],−2.163
same,logFC MPP3,[1],−1.029
same,logFC MRAS,[1],−0.5698
same,logFC MTMR7,[1],−1.1
same,logFC MTSS1,[1],−0.9406
same,logFC MX1,[1],−1.291
same,logFC MXRA7,[1],−0.6421
same,logFC MYL1,[1],−4.411
same,logFC NACAD,[1],−0.8329
same,logFC NAP1L5,[1],−0.871
same,logFC NCAM1,[1],−1.37
same,logFC NCAM2,[1],−1.147
same,logFC NDRG4,[1],−1.32
same,logFC NECAP1,[1],−0.6044
same,logFC NEGR1,[1],−1.829
same,logFC NFASC,[1],−1.15
same,logFC NHLH1,[1],−1.305
same,logFC NHLH2,[1],−2.363
same,logFC NKAIN4,[1],−0.8753
same,logFC NMNAT2,[1],−1.044
same,logFC NOVAI,[1],−0.9754
same,logFC NPAS3,[1],−1.402
same,logFC NPM2,[1],−1.674
same,logFC NR1I3,[1],−1.278
same,logFC NRSN1,[1],−1.718
same,logFC NRXN1,[1],−1.372
same,logFC NSG1,[1],−1.704
same,logFC NSG2,[1],−1.942
same,logFC NTM,[1],−1.35
same,logFC NTNG1,[1],−1.193
same,logFC NWD2,[1],−2.251
same,logFC NXPH4,[1],−1.744
same,logFC NYAP1,[1],−0.9844
same,logFC NYAP2,[1],−2.578
same,logFC OLFM2,[1],−1.002
same,logFC OTUD7A,[1],−1.036

# Reference: patent publication US20230094922A1, “METHODS OF THERAPEUTIC PROGNOSTICATION” (GENETIKAPLUS LTD., priority 2020, published 2023)
